The results in this text go back to US20090118332A1, “Therapeutic Agents - 551” (AstraZeneca AB, priority 2006, published 2009).

For orientation: inhibition means the drop in the measured response relative to a control, in per cent.

The target of the assay is T1, human Fatty Acid Synthase (Homo sapiens, UniProt P49327).
T1 construct: made in house
The assay can be described thus: Human FAS enzyme assay (decrease in NADPH fluorescence). The note with it: % inhibition at a concentration of 100 μmolar. Type of assay: biochemical. In outline:
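In-house human FAS was preincubated with compound and NADPH for 15 min at room temperature in 0.1 M Tris pH 7.5 with EDTA, glutathione and BSA. Malonyl CoA and acetyl CoA (500 μM and 150 μM in the added mix) were then added for 60 min. IC50 came from time-zero-subtracted NADPH fluorescence (340/460 nm).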

T1 sequence (P49327 whole entry): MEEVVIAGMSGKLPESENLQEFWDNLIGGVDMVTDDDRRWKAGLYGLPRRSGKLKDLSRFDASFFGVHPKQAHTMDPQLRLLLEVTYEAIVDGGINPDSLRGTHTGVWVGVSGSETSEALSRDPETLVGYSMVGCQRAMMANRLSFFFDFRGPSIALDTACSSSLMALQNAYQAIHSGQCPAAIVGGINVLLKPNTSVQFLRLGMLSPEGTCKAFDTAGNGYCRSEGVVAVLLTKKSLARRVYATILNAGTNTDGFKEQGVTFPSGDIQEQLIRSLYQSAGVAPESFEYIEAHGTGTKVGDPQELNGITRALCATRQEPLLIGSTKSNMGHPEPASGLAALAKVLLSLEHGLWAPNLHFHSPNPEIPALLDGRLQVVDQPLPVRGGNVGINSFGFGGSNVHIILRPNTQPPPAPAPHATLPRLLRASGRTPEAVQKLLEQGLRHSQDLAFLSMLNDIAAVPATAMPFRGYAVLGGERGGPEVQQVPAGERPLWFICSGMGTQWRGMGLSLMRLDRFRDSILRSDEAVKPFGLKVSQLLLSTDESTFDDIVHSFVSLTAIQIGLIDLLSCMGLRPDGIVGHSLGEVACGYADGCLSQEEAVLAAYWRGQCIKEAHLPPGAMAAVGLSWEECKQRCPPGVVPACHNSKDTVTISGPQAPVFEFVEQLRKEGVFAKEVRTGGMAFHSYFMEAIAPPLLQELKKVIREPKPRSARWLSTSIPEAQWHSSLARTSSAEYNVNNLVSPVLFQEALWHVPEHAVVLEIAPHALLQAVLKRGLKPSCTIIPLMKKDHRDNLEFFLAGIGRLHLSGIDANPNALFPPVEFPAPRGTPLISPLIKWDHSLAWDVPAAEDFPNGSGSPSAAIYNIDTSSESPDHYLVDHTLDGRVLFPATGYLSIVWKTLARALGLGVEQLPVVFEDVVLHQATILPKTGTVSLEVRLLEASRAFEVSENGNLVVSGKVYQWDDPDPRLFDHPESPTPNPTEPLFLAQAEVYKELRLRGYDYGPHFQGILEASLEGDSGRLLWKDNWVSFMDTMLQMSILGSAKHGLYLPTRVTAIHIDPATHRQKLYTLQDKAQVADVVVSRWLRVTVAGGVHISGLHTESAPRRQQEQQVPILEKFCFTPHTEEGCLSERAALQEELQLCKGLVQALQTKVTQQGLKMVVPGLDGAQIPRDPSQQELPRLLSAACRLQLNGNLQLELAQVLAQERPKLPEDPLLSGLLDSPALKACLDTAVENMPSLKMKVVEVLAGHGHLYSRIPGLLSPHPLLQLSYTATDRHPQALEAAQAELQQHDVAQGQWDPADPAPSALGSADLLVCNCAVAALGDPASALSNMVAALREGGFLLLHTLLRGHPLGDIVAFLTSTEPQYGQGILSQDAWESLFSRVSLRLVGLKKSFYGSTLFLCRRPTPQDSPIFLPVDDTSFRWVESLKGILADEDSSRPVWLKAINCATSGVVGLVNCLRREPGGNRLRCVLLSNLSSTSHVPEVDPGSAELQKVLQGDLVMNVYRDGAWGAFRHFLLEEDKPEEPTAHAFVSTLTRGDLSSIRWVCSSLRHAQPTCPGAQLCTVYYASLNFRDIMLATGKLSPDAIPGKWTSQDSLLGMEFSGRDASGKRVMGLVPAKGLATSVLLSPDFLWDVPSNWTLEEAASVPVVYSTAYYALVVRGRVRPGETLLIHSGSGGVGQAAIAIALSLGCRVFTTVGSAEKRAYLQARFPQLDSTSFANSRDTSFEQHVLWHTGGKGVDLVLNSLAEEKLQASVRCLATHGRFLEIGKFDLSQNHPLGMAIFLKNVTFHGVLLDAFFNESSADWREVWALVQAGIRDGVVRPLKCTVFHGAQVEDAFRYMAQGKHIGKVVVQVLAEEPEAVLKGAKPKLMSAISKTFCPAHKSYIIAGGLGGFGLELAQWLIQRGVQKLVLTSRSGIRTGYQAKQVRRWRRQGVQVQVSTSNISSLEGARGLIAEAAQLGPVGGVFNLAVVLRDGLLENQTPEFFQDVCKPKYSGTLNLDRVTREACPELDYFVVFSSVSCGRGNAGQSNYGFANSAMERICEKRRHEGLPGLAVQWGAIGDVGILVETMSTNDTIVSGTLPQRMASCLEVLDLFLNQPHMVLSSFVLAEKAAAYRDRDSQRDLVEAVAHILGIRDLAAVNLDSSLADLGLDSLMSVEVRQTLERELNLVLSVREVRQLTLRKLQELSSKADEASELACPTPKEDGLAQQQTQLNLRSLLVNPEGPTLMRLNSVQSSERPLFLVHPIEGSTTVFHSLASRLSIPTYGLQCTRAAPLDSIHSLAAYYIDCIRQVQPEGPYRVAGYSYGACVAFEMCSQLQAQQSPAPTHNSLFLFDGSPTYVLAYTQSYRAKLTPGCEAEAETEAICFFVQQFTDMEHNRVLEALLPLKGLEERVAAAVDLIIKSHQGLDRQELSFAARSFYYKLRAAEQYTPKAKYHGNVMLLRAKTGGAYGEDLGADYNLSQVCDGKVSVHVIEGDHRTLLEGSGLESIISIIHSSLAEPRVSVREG

For the compound `Cc1ccc(C(=O)N2CCC(c3ccc(C#N)cc3)CC2)cc1NC(=O)NC1CC1` [Example 225, 1-[5-[4-(4-cyanophenyl)piperidine-1-carbonyl]-2-methyl-phenyl]-3-cyclopropyl-urea], the inhibition at 100 µM was determined as 89.9%. In the case of `Cc1ccc(C(=O)N2CCC(c3ccc(C#N)cc3)CC2)cc1NC(=O)NCCN(C)C(=O)C(C)C` [Example 271, N-[2-[[5-[4-(4-cyanophenyl)piperidine-1-carbonyl]-2-methyl-phenyl]carbamoylamino]ethyl]-N, 2-dimethyl-propanamide], the inhibition at 100 µM worked out at 93.4%.

For `CCOCCCNC(=O)Nc1ccc(C)c(C(=O)N2CCC(c3ccc(C#N)cc3)CC2)c1` [Example 416, 3-[3-[4-(4-cyanophenyl)piperidine-1-carbonyl]-4-methylphenyl]-1-(3-ethoxypropyl)urea], the inhibition at 100 µM amounted to 90.8%.

For `Cc1ccc(C(=O)N2CCC(c3ccc(C#N)cc3)CC2)cc1NC(=O)NC1CCN(S(=O)(=O)N(C)C)CC1` [Example 285, 1-[5-[4-(4-cyanophenyl)piperidine-1-carbonyl]-2-methyl-phenyl]-3-[1-(dimethylsulfamoyl)-4-piperidyl]urea], the inhibition at 100 µM was 98.7%.

Take `CCOC(=O)N1CCN(C(=O)Nc2cc(C(=O)N3CCC(c4ccc(C#N)cc4)CC3)ccc2C)CC1` [Example 330, Ethyl 4-[[5-[4-(4-cyanophenyl)piperidine-1-carbonyl]-2-methyl-phenyl]carbamoyl]piperazine-1-carboxylate]: the inhibition at 100 µM came out at 82.4%. For `Cc1ccc(C(=O)N2CCC(c3ccc(C#N)cc3)CC2)cc1NC(=O)NC1CCN(C)CC1` [Example 148, 1-[5-[4-(4-cyanophenyl)piperidine-1-carbonyl]-2-methyl-phenyl]-3-(1-methyl-4-piperidyl)urea], the inhibition at 100 µM came out at 79.5%. For `Cc1ccc(C(=O)N2CCC(c3ccc(C#N)cc3)CC2)cc1NC(=O)NCc1nccs1` [Example 248, 1-[5-[4-(4-cyanophenyl)piperidine-1-carbonyl]-2-methyl-phenyl]-3-(1,3-thiazol-2-ylmethyl)urea] the value was 100%; for `COCCNC(=O)CCNC(=O)Nc1cc(C(=O)N2CCC(c3ccc(C#N)cc3)CC2)ccc1C` [Example 128, 3-[[5-[4-(4-cyanophenyl)piperidine-1-carbonyl]-2-methyl-phenyl]carbamoylamino]-N-(2-methoxyethyl)propanamide], 87.5%; for `Cc1ccc(C(=O)N2CCC(c3ccc(C#N)cc3)CC2)cc1NC(=O)N[C@@H]1CCC(=O)NC1` [Example 265, 1-[5-[4-(4-cyanophenyl)piperidine-1-carbonyl]-2-methyl-phenyl]-3-[(3R)-6-oxo-3-piperidyl]urea], 90.6%. The same measure for `Cc1ccc(C(=O)N2CCC(c3ccc(C#N)cc3)CC2)cc1NC(=O)NCCNC(=O)CC(=O)O` [Example 104A, 2-[2-[[5-[4-(4-cyanophenyl)piperidine-1-carbonyl]-2-methyl-phenyl]carbamoylamino]ethylcarbamoyl]acetic acid]: 79%. For `Cc1ccc(C(=O)N2CCC(c3ccc(C#N)cc3)CC2)cc1NC(=O)N(C)CCO` [Example 392, 3-[5-[4-(4-cyanophenyl)piperidine-1-carbonyl]-2-methylphenyl]-1-(2-hydroxyethyl)-1-methylurea] the value was 76.3%; for `CCS(=O)(=O)NCCNC(=O)Nc1cc(C(=O)N2CCC(c3ccc(C#N)cc3)CC2)ccc1C` [Example 110, 3-[5-[4-(4-cyanophenyl)piperidine-1-carbonyl]-2-methyl-phenyl]-1-[2-(ethylsulfonylamino)ethyl]urea], 94.2%. On to `Cc1ccc(C(=O)N2CCC(c3ccc(C#N)cc3)CC2)cc1NC(=O)N[C@H]1CC[C@H](NC(=O)OC(C)(C)C)C1` [Example 316, tert-butyl N-[(1S,3S)-3-[[5-[4-(4-cyanophenyl)piperidine-1-carbonyl]-2-methyl-phenyl]carbamoylamino]cyclopentyl]carbamate], for which the inhibition at 100 µM was determined as 99.6%.

As to `Cc1ccc(C(=O)N2CCC(c3ccc(C#N)cc3)CC2)cc1NC(=O)NCCNC(N)=O` [Example 234, 3-[2-(carbamoylamino)ethyl]-1-[5-[4-(4-cyanophenyl)piperidine-1-carbonyl]-2-methyl-phenyl]urea], the inhibition at 100 µM came to 91.5%. For `Cc1ccc(C(=O)N2CCC(c3ccc(C#N)cc3)CC2)cc1NC(=O)NC1COC1` [Example 299, 1-[5-[4-(4-cyanophenyl)piperidine-1-carbonyl]-2-methyl-phenyl]-3-(oxetan-3-yl)urea] the value was 95.1%; for `Cc1ccc(C(=O)N2CCC(c3ccc(C#N)cc3)CC2)cc1NC(=O)NC(C)COc1ccccc1` (racemic) [Example 253, (RS)-1-[5-[4-(4-cyanophenyl)piperidine-1-carbonyl]-2-methyl-phenyl]-3-(1-phenoxypropan-2-yl)urea], 90.9%; for `Cc1ccc(C(=O)N2CCC(c3ccc(C#N)cc3)CC2)cc1NC(=O)NC1CCC(N(C)C)CC1` (centres unmarked) [Example 256, 1-[5-[4-(4-cyanophenyl)piperidine-1-carbonyl]-2-methyl-phenyl]-3-(4-dimethylaminocyclohexyl)urea], 98.7%. The same measure for `Cc1ccc(NC(=O)NCCCS(C)(=O)=O)cc1C(=O)N1CCC(c2ccc(C#N)cc2)CC1` [Example 278, 1-[3-[4-(4-cyanophenyl)piperidine-1-carbonyl]-4-methyl-phenyl]-3-(3-methylsulfonylpropyl)urea]: 95.8%. `Cc1ccc(C(=O)N2CCC(c3ccc(C#N)cc3)CC2)cc1NC(=O)N[C@H]1CC[C@H](N)C1` [Example 318, 3-[(1S,3S)-3-aminocyclopentyl]-1-[5-[4-(4-cyanophenyl)piperidine-1-carbonyl]-2-methyl-phenyl]urea]: the inhibition at 100 µM is 93.9%. The same measure for `Cc1ccc(C(=O)N2CCC(c3ccc(C#N)cc3)CC2)cc1NC(=O)N[C@@H](CO)C(N)=O` [Example 192, (2S)-2-[[5-[4-(4-cyanophenyl)piperidine-1-carbonyl]-2-methyl-phenyl]carbamoylamino]-3-hydroxy-propanamide]: 85.1%; for `Cc1ccc(C(=O)N2CCC(c3ccc(C#N)cc3)CC2)cc1NC(=O)NCCNc1nc(N)nc(C)c1C` [Example 94, 3-[2-[(2-amino-5,6-dimethyl-pyrimidin-4-yl)amino]ethyl]-1-[5-[4-(4-cyanophenyl)piperidine-1-carbonyl]-2-methyl-phenyl]urea]: 89.6%.

In the case of `Cc1ccc(C(=O)N2CCC(c3ccc(C#N)cc3)CC2)cc1NC(=O)NCCNS(=O)(=O)N(C)C` [Example 92, 1-[5-[4-(4-cyanophenyl)piperidine-1-carbonyl]-2-methyl-phenyl]-3-[2-(dimethylsulfamoylamino)ethyl]urea], the inhibition at 100 µM is 102%. For `CNC(=O)CCNC(=O)Nc1cc(C(=O)N2CCC(c3ccc(C#N)cc3)CC2)ccc1C` [Example 179, 3-[[5-[4-(4-cyanophenyl)piperidine-1-carbonyl]-2-methyl-phenyl]carbamoylamino]-N-methyl-propanamide] the value was 89.2%.
